Measured values taken from patent US20230339886A1 (University of Florida Research Foundation, Incorporated, priority 2020, published 2023).

molecular target: T1, REV-ERBα LBD (human; residues 281-614 Δ324-422) (Homo sapiens, UniProt P20393, DEL324-422); test: TR-FRET corepressor interaction assay (REV-ERBα LBD, FITC-SMRT peptide); type: biochemical; settings: FITC-SMRT peptide, read-out: REVERBα agonism (EC50 class, FRET assay)
T1 construct: 6×Histag-REV-ERBα LBD (human; residues 281-614 Δ324-422); made in house; host or cells: Escherichia coli
T1 sequence (P20393 with tags, fused parts or gaps DEL324-422): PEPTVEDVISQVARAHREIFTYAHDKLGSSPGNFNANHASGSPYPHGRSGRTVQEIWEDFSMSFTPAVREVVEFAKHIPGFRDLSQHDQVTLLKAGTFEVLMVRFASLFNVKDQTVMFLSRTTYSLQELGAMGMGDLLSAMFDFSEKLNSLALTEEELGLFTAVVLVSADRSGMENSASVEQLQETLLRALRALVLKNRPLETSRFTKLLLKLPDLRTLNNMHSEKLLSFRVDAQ
T1 sequence (Q9Y618 2335-2356 partner limits assumed): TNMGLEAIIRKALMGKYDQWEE
Description: TR-FRET corepressor interaction assay. The time-resolved fluorescence resonance energy transfer (TR-FRET) assay was performed in black low-volume 384-well plates (Greiner). […] Ligand stocks were prepared via serial dilution in DMSO, added to wells in triplicate, and plates were incubated at 4° C. for 2 h and read using a BioTek Synergy Neo multimode plate reader. The Tb donor was excited at 340 nm; its fluorescence emission was monitored at 495 nm, and the acceptor FITC emission was measured at 520 nm; and the TR-FRET ratio was calculated as the signal at 520 nm divided by the signal at 495 nm. Data were plotted using GraphPad Prism as TR-FRET ratio vs. ligand concentration and fit to sigmoidal dose response curve equation.

| EC50 | SMILES |
| --- | --- |
| < 500 nM | CC(C)(C)Cn1cc([C@H](NS(=O)(=O)C2CCC2)C(F)(F)F)c2cc(F)c(-c3cccnc3C#N)cc21 (racemic) [Example 529, (S)—N-(1-(6-(2-cyanopyridin-3-yl)-5-fluoro-1-neopentyl-1H-indol-3-yl)-2,2,2-trifluoroethyl)cyclobutanesulfonamide] |

same assay, conditions: Table 2, read-out: REVERBα agonism (EC50 class, FRET assay)

| SMILES | EC50 |
| --- | --- |
| CC(C)Cn1cc(CCNS(C)(=O)=O)c2ccc(-c3ccncc3)cc21 [Compound 3] | 500 to 3000 nM |
| CC(C)Cn1cc(CCN(C)S(=O)(=O)N(C)C)c2ccc(-c3ccncc3)cc21 [Compound 5] | < 500 nM |
| CCCn1cc(CCNS(=O)(=O)N(C)C)c2ccc(-c3ccncc3)cc21 [Compound 6] | < 500 nM |
| CN(C)S(=O)(=O)NCCc1cn(CC2CC2)c2cc(-c3ccncc3)ccc12 [Compound 7] | < 500 nM |
| CN(C)S(=O)(=O)NCCc1cn(Cc2ccccc2)c2cc(-c3ccncc3)ccc12 [Compound 8] | < 500 nM |
| CN(C)S(=O)(=O)NCCc1cn(CC2CCOC2)c2cc(-c3ccncc3)ccc12 (stereo not drawn) [Compound 9] | 500 to 3000 nM |
| COc1cc(-c2ccc3c(CCNS(=O)(=O)N(C)C)cn(CC(C)C)c3c2)ccn1 [Compound 19] | 500 to 3000 nM |
| CN(C)S(=O)(=O)NCCc1c[nH]c2cc(-c3ccncc3)ccc12 [Compound 40, dimethyl({2-[6-(pyridin-4-yl)-1H-indol-3-yl]ethyl}sulfamoyl)amine] | > 3000 nM |
| CC(=O)n1cc(CCNS(=O)(=O)N(C)C)c2ccc(-c3ccncc3)cc21 [Compound 42, 1-(3-{2-[(dimethylsulfamoyl)amino]ethyl}-6-(pyridin-4-yl)-1H-indol-1-yl)ethan-1-one] | > 3000 nM |
| CC(C)C(=O)n1cc(CCNS(=O)(=O)N(C)C)c2ccc(-c3ccncc3)cc21 [Compound 43, 1-(3-{2-[(dimethylsulfamoyl)amino]ethyl}-6-(pyridin-4-yl)-1H-indol-1-yl)-2-methylpropan-1-one] | < 500 nM |
| CC(C)Cc1cn(C2CCN(S(=O)(=O)C(C)C)C2)c2ccc(-c3ccncc3)cc12 (stereo not drawn) [Compound 44] | 500 to 3000 nM |
| Cc1noc(C)c1-c1ccc2c(CCNS(=O)(=O)N(C)C)cn(CC(C)C)c2c1 [Compound 64, ({2-[6-(3,5-dimethyl-1,2-oxazol-4-yl)-1-(2-methylpropyl)-1H-indol-3-yl]ethyl}sulfamoyl)dimethylamine] | > 3000 nM |
| CC(C)Cn1cc(CCNS(=O)(=O)N(C)C)c2ccc(-c3cnoc3)cc21 [Compound 65, dimethyl({2-[1-(2-methylpropyl)-6-(1,2-oxazol-4-yl)-1H-indol-3-yl]ethyl}sulfamoyl)amine] | 500 to 3000 nM |
| CC(C)Cn1cc(CCNS(=O)(=O)N(C)C)c2ccc(-c3ccoc3)cc21 [Compound 66, ({2-[6-(furan-3-yl)-1-(2-methylpropyl)-1H-indol-3-yl]ethyl}sulfamoyl)dimethylamine] | < 500 nM |
| CC(C)Cn1cc(CCNS(=O)(=O)N(C)C)c2ccc(-c3ncco3)cc21 [Compound 67, dimethyl({2-[1-(2-methylpropyl)-6-(1,3-oxazol-2-yl)-1H-indol-3-yl]ethyl}sulfamoyl)amine] | 500 to 3000 nM |
| CC(C)Cn1cc(CCNS(=O)(=O)N(C)C)c2ccc(Nc3ccnn3C)cc21 [Compound 69, 3-{2-[(dimethylsulfamoyl)amino]ethyl}-N-(1-methyl-1H-pyrazol-5-yl)-1-(2-methylpropyl)-1H-indol-6-amine] | > 3000 nM |
| CC(C)Cn1cc(CCNS(=O)(=O)N(C)C)c2ccc(NC(=O)Cc3ccccc3)cc21 [Compound 70, N-(3-{2-[(dimethylsulfamoyl)amino]ethyl}-1-(2-methylpropyl)-1H-indol-6-yl)-2-phenylacetamide] | > 3000 nM |
| CC(C)Cn1cc(CCNS(=O)(=O)N(C)C)c2ccc(NC(=O)c3ccccc3)cc21 [Compound 71] | > 3000 nM |

| SMILES | EC50 |
| --- | --- |
| CC(C)Cn1cc(CCNS(=O)(=O)N(C)C)c2ccc(C#N)cc21 [Compound 96, 3-{2-[(dimethylsulfamoyl)amino]ethyl}-1-(2-methylpropyl)-1H-indole-6-carbonitrile] | < 500 nM |
| CC(C)Cn1cc(CCNS(=O)(=O)N(C)C)c2ccc(Br)cc21 [Compound 97, ({2-[6-bromo-1-(2-methylpropyl)-1H-indol-3-yl]ethyl}sulfamoyl)dimethylamine] | < 500 nM |
| CC(C)Cn1cc(CCNS(=O)(=O)N(C)C)c2ccc(C3CCN(C(=O)OC(C)(C)C)CC3)cc21 [Compound 101, tert-butyl 4-(3-{2-[(dimethylsulfamoyl)amino]ethyl}-1-(2-methylpropyl)-1H-indol-6-yl)piperidine-1-carboxylate] | 500 to 3000 nM |
| CC(C)Cn1cc(CCNS(=O)(=O)N(C)C)c2ccc(C3CCNCC3)cc21 [Compound 102, dimethyl({2-[1-(2-methylpropyl)-6-(piperidin-4-yl)-1H-indol-3-yl]ethyl}sulfamoyl)amine] | > 3000 nM |
| CC(=O)N1CCC(c2ccc3c(CCNS(=O)(=O)N(C)C)cn(CC(C)C)c3c2)CC1 [Compound 103, 1-[4-(3-{2-[(dimethylsulfamoyl)amino]ethyl}-1-(2-methylpropyl)-1H-indol-6-yl)piperidin-1-yl]ethan-1-one] | > 3000 nM |
| CC(C)Cn1cc(CCN(C)S(=O)(=O)N(C)C)c2ccc(C#N)cc21 [Compound 122, 3-{2-[(dimethylsulfamoyl)(methyl)amino]ethyl}-1-(2-methylpropyl)-1H-indole-6-carbonitrile] | > 3000 nM |
| CC(C)Cn1cc(CCN(C)S(=O)(=O)N(C)C)c2ccc(Br)cc21 [Compound 123, ({2-[6-bromo-1-(2-methylpropyl)-1H-indol-3-yl]ethyl}(methyl)sulfamoyl)dimethylamine] | 500 to 3000 nM |
| CC(C)CC(=O)n1cc(CCNS(=O)(=O)N(C)C)c2ccc(-c3ccncc3)cc21 [Compound 155, 1-(3-{2-[(dimethylsulfamoyl)amino]ethyl}-6-(pyridin-4-yl)-1H-indol-1-yl)-3-methylbutan-1-one] | 500 to 3000 nM |
| CN(C)S(=O)(=O)NCCc1cn(C(=O)C(C)(C)C)c2cc(-c3ccncc3)ccc12 [Compound 156, 1-(3-{2-[(dimethylsulfamoyl)amino]ethyl}-6-(pyridin-4-yl)-1H-indol-1-yl)-2,2dimethylpropan-1-one] | > 3000 nM |
| CCn1cc(CCNS(=O)(=O)N(C)C)c2ccc(Br)cc21 [Compound 157, {[2-(6-bromo-1-ethyl-1H-indol-3-yl)ethyl]sulfamoyl}dimethylamine] | 500 to 3000 nM |
| CC(C)Cn1cc(CCNS(=O)(=O)N(C)C)c2ccc(-c3ccncc3C(F)(F)F)cc21 [Compound 206, dimethyl({2-[1-(2-methylpropyl)-6-[3-(trifluoromethyl)pyridin-4-yl]-1H-indol-3-yl]ethyl}sulfamoyl)amine] | < 500 nM |
| COc1ccc2cc(-c3ccc4c(c3)c(CC(C)(C)C)cn4CCNS(=O)(=O)C3CC3)ccc2c1 [Compound 220] | > 3000 nM |
| CC(C)(C)Cc1cn(CCNS(=O)(=O)C2CC2)c2ccc(-c3ccc(F)c(F)c3)cc12 [Compound 226] | 500 to 3000 nM |
| CC(C)Cn1cc(CCNS(=O)(=O)N(C)C)c2cc(-c3ccncc3)ccc21 [Compound 232] | > 3000 nM |
| CC(C)Cn1cc(CC(=O)NS(=O)(=O)N(C)C)c2ccc(-c3ccncc3)cc21 [Compound 234] | > 3000 nM |
| CC(C)Cn1cc(CCCNS(=O)(=O)N(C)C)c2ccc(-c3ccncc3)cc21 [Compound 235] | > 3000 nM |
| Cc1c(CCNS(=O)(=O)N(C)C)c2ccc(-c3ccncc3)cc2n1CC(C)C [Compound 236] | 500 to 3000 nM |

Next, values leading:

| EC50 | SMILES |
| --- | --- |
| 500 to 3000 nM | CC(C)(O)Cn1cc([C@H](NS(=O)(=O)C2CCC2)C(F)(F)F)c2ccc(-c3ccccc3C(F)(F)F)nc21 (racemic) [Example 412, N-[rac-(1S)-2,2,2-trifluoro-1-[1-(2-hydroxy-2-methyl-propyl)-6-[2-(trifluoromethyl)phenyl]pyrrolo[2,3-b]pyridin-3-yl]ethyl]cyclobutanesulfonamide] |
| 500 to 3000 nM | CN(C)S(=O)(=O)NCCc1cn(CCOC(C)(C)C)c2cc(-c3ccncc3)ccc12 [Compound 237] |
| 500 to 3000 nM | CC(C)Cn1cc(CNS(=O)(=O)N(C)C)c2ccc(-c3ccncc3)cc21 [Compound 238] |
| < 500 nM | CC(C)Cn1cc(CNS(=O)(=O)N(C)C)c2ccc(-c3ccncc3)cc21 [Compound 239] |
| < 500 nM | CC(C)Cn1cc(CNS(=O)(=O)C2CCCC2)c2ccc(-c3ccncc3)cc21 [Compound 243] |
| < 500 nM | CC(C)Cn1cc(CNS(=O)(=O)N2CCCC2)c2ccc(-c3ccncc3)cc21 [Compound 244] |
| < 500 nM | CC(C)Cn1cc(CNS(=O)(=O)CC(C)C)c2ccc(-c3ccncc3)cc21 [Compound 245] |
| 500 to 3000 nM | CC(C)Cn1cc(CN(C)S(=O)(=O)N(C)C)c2ccc(-c3ccncc3)cc21 [Compound 246] |
| 500 to 3000 nM | CC(C)Cn1cc(CCS(=O)(=O)C(C)C)c2ccc(Br)cc21 [Compound 247] |
| < 500 nM | CC(C)Cn1cc(CCS(=O)(=O)C(C)C)c2ccc(-c3ccncc3)cc21 [Compound 248] |
| < 500 nM | CC(C)Cn1cc(CCS(=O)(=O)C(C)C)c2ccc(C3CCCCC3)cc21 [Compound 250] |
| < 500 nM | CC(C)Cn1cc(C(C)CNS(=O)(=O)C(C)C)c2ccc(-c3ccncc3)cc21 (stereo not drawn) [Compound 251] |
| 500 to 3000 nM | CC(C)Cn1cc(C(C)CNS(=O)(=O)C2CC2)c2ccc(-c3ccncc3)cc21 (stereo not drawn) [Compound 253] |
| > 3000 nM | CC(C)Cn1cc(C(C)CNS(=O)(=O)C(C)C)c2ccc(-c3ccccc3)cc21 (stereo not drawn) [Compound 254] |
| 500 to 3000 nM | CC(C)Cn1cc(C(C)CNS(=O)(=O)N(C)C)c2ccc(-c3ccccc3)cc21 (stereo not drawn) [Compound 255] |
